US4656180A, “Diamine derivatives and pharmaceutical preparations containing these compounds” (Ludwig Heumann & Co., GmbH, priority 1984, dated 1987)

How the values were obtained:
[1] = therapeutic use; several daily doses of tablets required; cited from earlier work
histamine-H2 receptors = target: T1, histamine-H2 receptors (Cavia porcellus, UniProt P47747); assay: pA2-values in vitro on isolated guinea-pigs' atrium (H2-antagonistic activity); design: species or system guinea-pig
T1 construct: in vitro on isolated guinea-pigs' atrium; from tissue; host or cells: isolated guinea-pig atrium (right atrium per b6)
Description: J. Pharmacol. Chemother. ", 27, 427 (1966) and Black et al, "Nature", 236, 385 (1971)].
One recognized method of determining the H2 -antagonistic activity is the determination of the pA2 -values in vitro on isolated guinea-pigs' atrium (see Ariens, Molecular Pharmacology, Volume 1, Academic Press, New York, 1964).

T1 sequence (P47747 whole entry): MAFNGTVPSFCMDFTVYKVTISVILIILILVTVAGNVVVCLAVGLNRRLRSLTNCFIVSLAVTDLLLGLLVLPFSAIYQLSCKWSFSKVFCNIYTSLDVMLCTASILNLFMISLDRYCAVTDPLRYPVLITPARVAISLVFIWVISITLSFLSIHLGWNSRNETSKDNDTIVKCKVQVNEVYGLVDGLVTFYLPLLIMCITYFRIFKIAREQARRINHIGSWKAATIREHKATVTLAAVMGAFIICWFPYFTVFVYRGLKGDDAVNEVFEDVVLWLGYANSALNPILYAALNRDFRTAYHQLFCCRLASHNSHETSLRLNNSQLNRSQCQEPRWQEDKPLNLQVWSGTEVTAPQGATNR

| Structure (SMILES) | half life [1] | Kb (histamine-H2 receptors) [nM] |
| --- | --- | --- |
| CN/C(=N/CCSCc1nc[nH]c1C)NC#N [Cimetidine] | relatively short half life | – |
| [O-][s+]1nc(NCC(O)COc2cccc(CN3CCCCC3)c2)c(NCC(O)COc2cccc(CN3CCCCC3)c2)n1 (stereo not drawn) [Example 4] | – | 7.24 |
| CNC(=C[N+](=O)[O-])NCCSCc1ccc(CN(C)C)o1 [ranitidine] | relatively short half life | – |
